Measured values reported in patent publication EP0538001A1, “MRSA active 2-halophenyl carbapenems” (MERCK & CO. INC., priority 1991, dated 1993).

Test system: MRSA
Assay: Activity against a strain of MRSA pathogen, relative to thienamycin
Type: cell-based, methicillin resistant Staphylococcus aureus
Details: relative to the effectiveness of thienamycin, arbitrarily assigned an effectiveness of 1; one strain of MRSA
Method: The activity of the following compounds was measured against a strain of MRSA pathogen and reported as relative to the effectiveness of thienamycin, which is arbitrarily assigned an effectiveness of 1. Regarding this measure of activity, reference is made to R. Guthikonda, et al., J. Med. Chem., 30, 871 (1987). [drawing 18]

Point of comparison: `C[C@@H](O)[C@H]1C(=O)N2C(C(=O)O)=C(c3ccc(F)cc3)C[C@H]12` [R^a1 = H, R^a2 = F], “ANTI-INFECTIVE ACTIVITY MRSA” value 1.1. Against it:
- C[C@@H](O)[C@H]1C(=O)N2C(C(=O)O)=C(c3cccc(Br)c3)C[C@H]12 [R^a1 = Br, R^a2 = H, sodium (5R,6S)-2-[3-bromophenyl]-6[(1R)-1-hydroxyethyl]-carbapen-2-em-3-carboxylate] — higher, 14
- C[C@@H](O)[C@H]1C(=O)N2C(C(=O)O)=C(c3cccc(Cl)c3)C[C@H]12 [R^a1 = Cl, R^a2 = H] — higher, 8.1
- C[C@@H](O)[C@H]1C(=O)N2C(C(=O)O)=C(c3cccc(F)c3)C[C@H]12 [R^a1 = F, R^a2 = H] — higher, 2
- C[C@@H](O)[C@H]1C(=O)N2C(C(=O)O)=C(c3ccc(Br)cc3)C[C@H]12 [R^a1 = H, R^a2 = Br] — higher, 1.6
- C[C@@H](O)[C@H]1C(=O)N2C(C(=O)O)=C(c3ccc(Cl)cc3)C[C@H]12 [R^a1 = H, R^a2 = Cl] — higher, 1.3
- C[C@@H](O)[C@H]1C(=O)N2C(C(=O)O)=C(c3ccc(I)cc3)C[C@H]12 [R^a1 = H, R^a2 = I] — higher, 1.8
